Some test systems named below: Acinetobacter baumannii; Escherichia coli K88; Escherichia coli K99; Escherichia coli UB1005; Escherichia coli; Klebsiella pneumoniae; Pseudomonas aeruginosa; Candida albicans.
Assay in all cases: ≥ marks a high value that may be exact or a test limit, other limits are often not marked, values filed in µg/mL are converted to µM
For experiment [1], the system named is Escherichia coli ATCC 25922.
Experiment [2] has as its system Pseudomonas aeruginosa ATCC 27853.
The test system of experiment [3] is Pseudomonas aeruginosa CICC 21625.
Experiment [4] relates to Pseudomonas aeruginosa CICC 21630.
The subject of experiment [5] is Pseudomonas aeruginosa PAO1.
Experiment [6] deals with Salmonella enterica subsp. enterica serovar Pullorum C79-13.
For experiment [7], the system named is Salmonella enterica subsp. enterica serovar Typhimurium ATCC 14028.
Experiment [8] has as its system Salmonella enterica subsp. enterica serovar Typhimurium C77-31.
In experiment [9] the test system is Candida albicans CGMCC 2.2086.
Experiment [10] relates to Candida parapsilosis CGMCC 2.3989.
Experiment [11] deals with Candida tropicalis CGMCC 2.1975.

Data on five compounds can be found in DBAASP.

Converted amounts (≈) assume the structure as drawn.

`CC[C@H](C)[C@H](N)C(=O)N[C@@H](CCCCN)C(=O)N1CCC[C@H]1C(=O)N[C@H](C(=O)N[C@H](C(=O)N[C@@H](CCCCN)C(=O)N1CCC[C@H]1C(=O)N[C@H](C(=O)N[C@H](C(=O)N[C@@H](CCCCN)C(=O)N1CCC[C@H]1C(=O)N[C@H](C(=O)N[C@H](C(=O)N[C@@H](CCCCN)C(=O)N1CCC[C@H]1C(=O)N[C@H](C(=O)N[C@H](C(=O)N[C@@H](CCCCN)C(=O)N1CCC[C@H]1C(=O)N[C@H](C(=O)N[C@H](C(=O)N[C@@H](CCCCN)C(=O)N1CCC[C@H]1C(=O)N[C@H](C(N)=O)[C@@H](C)CC)[C@@H](C)CC)[C@@H](C)CC)[C@@H](C)CC)[C@@H](C)CC)[C@@H](C)CC)[C@@H](C)CC)[C@@H](C)CC)[C@@H](C)CC)[C@@H](C)CC)[C@@H](C)CC` [IKPIIKPIIKPIIKPIIKPIIKPI]: the MIC – broadly, the lowest concentration that inhibits growth of the organism – with Acinetobacter baumannii stood at 16 µM (≈ 43.6 µg/mL); in experiment [1], 16 µM (≈ 43.6 µg/mL); against Escherichia coli K88, 4 µM (≈ 10.9 µg/mL); with Escherichia coli K99 it was 8 µM (≈ 21.8 µg/mL); in the experiment on Escherichia coli UB1005, 16 µM (≈ 43.6 µg/mL); in the experiment on Escherichia coli it was 64 µM (≈ 175 µg/mL). The minimum inhibitory concentration (MIC) in the experiment on Klebsiella pneumoniae was above 64 µM; in experiment [2] it was above 64 µM; in [3] it was at least 64 µM; in experiment [4] it was at least 64 µM; in [5] it was above 64 µM; in the experiment on Pseudomonas aeruginosa, above 64 µM. Also, the MIC in experiment [6] was at least 64 µM; in experiment [7], 64 µM (≈ 175 µg/mL); in experiment [8] it was at least 64 µM.
Take `CC(C)[C@H](N)C(=O)N[C@@H](CCCN=C(N)N)C(=O)N1CCC[C@H]1C(=O)N[C@H](C(=O)N[C@H](C(=O)N[C@@H](CCCN=C(N)N)C(=O)N1CCC[C@H]1C(=O)N[C@H](C(=O)N[C@H](C(=O)N[C@@H](CCCN=C(N)N)C(=O)N1CCC[C@H]1C(=O)N[C@H](C(=O)N[C@H](C(=O)N[C@@H](CCCN=C(N)N)C(=O)N1CCC[C@H]1C(=O)N[C@H](C(=O)N[C@H](C(=O)N[C@@H](CCCN=C(N)N)C(=O)N1CCC[C@H]1C(=O)N[C@H](C(=O)N[C@H](C(=O)N[C@@H](CCCN=C(N)N)C(=O)N1CCC[C@H]1C(=O)N[C@H](C(=O)N[C@H](C(=O)N[C@@H](CCCN=C(N)N)C(=O)N1CCC[C@H]1C(=O)N[C@H](C(N)=O)C(C)C)C(C)C)C(C)C)C(C)C)C(C)C)C(C)C)C(C)C)C(C)C)C(C)C)C(C)C)C(C)C)C(C)C)C(C)C` [VRPVVRPVVRPVVRPVVRPVVRPVVRPV]: the MIC with Acinetobacter baumannii was 4 µM (≈ 12.7 µg/mL); in experiment [1] it was 8 µM (≈ 25.4 µg/mL); in the experiment on Escherichia coli K88, 8 µM (≈ 25.4 µg/mL); in the experiment on Escherichia coli K99, 16 µM (≈ 50.8 µg/mL); against Escherichia coli UB1005, 8 µM (≈ 25.4 µg/mL); with Escherichia coli, 8 µM (≈ 25.4 µg/mL). Further, the minimal inhibitory concentration (MIC) was 32 µM (≈ 102 µg/mL) against Klebsiella pneumoniae; above 64 µM in [2]; at least 64 µM in experiment [3]; at least 64 µM in [4]; above 64 µM in experiment [5]; above 64 µM against Pseudomonas aeruginosa. Besides, the MIC was 4 µM (≈ 12.7 µg/mL) in experiment [6], 8 µM (≈ 25.4 µg/mL) in experiment [7] and 16 µM (≈ 50.8 µg/mL) in [8].
As to `CC[C@H](C)[C@H](NC(=O)CNC(=O)[C@H](CCCCN)NC(=O)[C@@H](NC(=O)[C@H](CC(C)C)NC(=O)[C@H](CC(C)C)NC(=O)[C@@H](NC(=O)[C@H](CCCCN)NC(=O)CNC(=O)[C@@H](NC(=O)[C@@H](N)CCCCN)[C@@H](C)CC)C(C)C)C(C)C)C(=O)N[C@@H](CCCCN)C(N)=O` [KIGKVLLVKGIK], the minimal inhibitory concentration (MIC) was at least 64 µM in [9], above 64 µM against Candida albicans, at least 64 µM in experiment [10] and at least 64 µM in [11].
Consider `CC(C)C[C@H](NC(=O)[C@@H]1CCCN1C(=O)[C@H](CCCN=C(N)N)NC(=O)[C@H](CC(C)C)NC(=O)[C@H](CC(C)C)NC(=O)[C@@H]1CCCN1C(=O)[C@H](CCCN=C(N)N)NC(=O)[C@H](CC(C)C)NC(=O)[C@H](CC(C)C)NC(=O)[C@@H]1CCCN1C(=O)[C@H](CCCN=C(N)N)NC(=O)[C@H](CC(C)C)NC(=O)[C@H](CC(C)C)NC(=O)[C@@H]1CCCN1C(=O)[C@H](CCCN=C(N)N)NC(=O)[C@H](CC(C)C)NC(=O)[C@H](CC(C)C)NC(=O)[C@@H]1CCCN1C(=O)[C@H](CCCN=C(N)N)NC(=O)[C@H](CC(C)C)NC(=O)[C@H](CC(C)C)NC(=O)[C@@H]1CCCN1C(=O)[C@H](CCCN=C(N)N)NC(=O)[C@H](CC(C)C)NC(=O)[C@H](CC(C)C)NC(=O)[C@@H]1CCCN1C(=O)[C@H](CCCN=C(N)N)NC(=O)[C@@H](N)CC(C)C)C(N)=O` [LRPLLRPLLRPLLRPLLRPLLRPLLRPL], for which the MIC turned out to be 1 µM (≈ 3.37 µg/mL) in the experiment with Acinetobacter baumannii; 1 µM (≈ 3.37 µg/mL) in [1]; 1 µM (≈ 3.37 µg/mL) with Escherichia coli K88; 1 µM (≈ 3.37 µg/mL) against Escherichia coli K99; 2 µM (≈ 6.75 µg/mL) in the experiment on Escherichia coli UB1005; 1 µM (≈ 3.37 µg/mL) in the experiment on Escherichia coli. Moreover, the MIC in the experiment with Klebsiella pneumoniae is 2 µM (≈ 6.75 µg/mL); in experiment [2], 1 µM (≈ 3.37 µg/mL); in experiment [3], 8 µM (≈ 27 µg/mL); in experiment [4] it was 2 µM (≈ 6.75 µg/mL); in experiment [5], 1 µM (≈ 3.37 µg/mL); in the experiment on Pseudomonas aeruginosa, 2.83 µM (≈ 9.54 µg/mL). Besides, the minimum inhibitory concentration (MIC) in [6] was found to be 1 µM (≈ 3.37 µg/mL); in [7], 1 µM (≈ 3.37 µg/mL); in experiment [8], 2 µM (≈ 6.75 µg/mL).
Turning to `CC[C@H](C)[C@H](NC(=O)[C@@H](N)CCCCN)C(=O)NCC(=O)N[C@@H](CCCCN)C(=O)N[C@H](C(=O)N[C@@H](CC(C)C)C(N)=O)C(C)C` [KIGKVL], the MIC in experiment [9] is at least 64 µM; in the experiment on Candida albicans, above 64 µM; in experiment [10], at least 64 µM; in experiment [11], at least 64 µM.
